Results on three compounds are retold here after patent US10918648B2, “Estrogen receptor modulator combinations” (The Regents of the University of California, priority 2016, dated 2021).

Structures are written as SMILES. Like-named read-outs stand apart in the source and are kept apart here.

Assay [1] has as its system A549 NSCLC cells. Nature of the assay: NSCLC cell proliferation in vitro (MTS assay). The format is cell-based, human. To be noted: 72 hours; for IC50: MTS assay. (Formazan colour is commonly taken as a measure of viable cells.)
Assay [2] deals with T1, estrogen receptor-alpha (Homo sapiens, UniProt P03372).
T1 construct: MCF-7 breast cancer cells with high expression of ERα protein were treated with; endogenous in cells; host or cells: MCF-7 human breast cancer cells
T1 sequence (P03372 1-595): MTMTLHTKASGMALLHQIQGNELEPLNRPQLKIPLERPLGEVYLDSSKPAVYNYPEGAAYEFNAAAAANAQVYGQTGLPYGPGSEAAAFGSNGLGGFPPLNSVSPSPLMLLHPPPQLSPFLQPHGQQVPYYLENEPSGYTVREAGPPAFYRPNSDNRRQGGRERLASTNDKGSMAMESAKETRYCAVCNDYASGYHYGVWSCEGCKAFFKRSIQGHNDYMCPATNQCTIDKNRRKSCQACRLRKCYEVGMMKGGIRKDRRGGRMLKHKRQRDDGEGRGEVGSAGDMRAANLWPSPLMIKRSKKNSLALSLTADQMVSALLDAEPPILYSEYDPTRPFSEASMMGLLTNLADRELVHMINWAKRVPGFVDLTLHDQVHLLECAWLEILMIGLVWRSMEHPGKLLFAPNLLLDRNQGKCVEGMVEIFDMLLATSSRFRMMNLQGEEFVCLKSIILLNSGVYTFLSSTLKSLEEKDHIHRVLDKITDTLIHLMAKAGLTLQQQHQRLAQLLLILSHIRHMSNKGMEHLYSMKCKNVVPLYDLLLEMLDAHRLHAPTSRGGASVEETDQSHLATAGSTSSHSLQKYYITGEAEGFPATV
Put plainly: ER down-regulation, Western immunoblot of ERα protein in MCF-7 cells. It counts as cell-based. As to conditions: for estrogen receptor-alpha expression (ERα protein levels, Western immunoblot): 1 μM or 10 μM, 48 hrs, in the presence of 1 nM estradiol, FIG. 3A. On the procedure:
MCF-7 breast cancer cells were maintained in estrogen-free conditions 48 h before experiments as described above. Cells were then incubated with vehicle control or either 1 μM or 10 μM antiestrogens in the presence of 1 nM estradiol-1713 for 48 hrs. After lysis, total cell proteins were resolved by 4-15% SDS-PAGE, transferred to polyvinylidene difluoride membranes and probed with mouse monoclonal antibody directed against estrogen receptor-alpha (Assay Designs, #SRA1010). Membranes were stripped and re-probed with Ribosomal Protein L13A (Santa Cruz Biotechnology, C11) as a loading control (45).
Fulvestrant (Faslodex®) has been characterized as a selective ERα downregulator and a pure anti-estrogen. Fulvestrant inhibits the transcriptional response to estrogen stimulation and induces the degradation of estrogen receptor proteins (46,47). […] One problem with fulvestrant is that the drug requires intramuscular injection and may not achieve optimal antitumor effects due to the limited doses that can be administered by this drug delivery method. […] MCF-7 breast cancer cells with high expression of ERα protein were treated with estradiol-170 and either 1 μM or 10 μM concentrations of JD128 and JD140 for 48 hours. […] MCF-7 breast cancer cells were estrogen-deprived for 48 hrs, then treated with 1 nM estradiol-170 (E2) or antiestrogens JD128 (128) or JD140 (140) at 1 μM or 10 μM concentrations in the presence of 1 nM estradiol-170. After 48 hrs, PAGE and immunoblotting was performed with antibody directed to anti-ERα (SRA1010) and anti-RPL13A for a loading control.
ER down-regulation: To determine if selected compounds can down-regulate ER protein, we treated cells for 24-48 hrs in vitro with candidate compounds at varying doses. Then, cells were disrupted and prepared for PAGE and Western immunoblots using anti-ERα antibodies (see FIG. 6A). […] Those ERDs with optimal activity in down-regulating ER were investigated further in the chemistry laboratory to further refine and develop such agents. […]

In assay [3] the target is T2, estrogen receptor (Homo sapiens, UniProt P03372).
T2 construct: endogenous in cells; host or cells: MCF-7 parental (MCF-7/CON) human breast cancer cells
T2 sequence (P03372 1-595): T1 sequence (P03372 1-595)
Nature of the assay: Specific [3H]estradiol-17β binding by MCF-7 parental cells. As to conditions: 2 nM [3H]estradiol-17β, compounds at 10 μM, FIG. 5A. On the procedure:
Specific estradiol binding: Specific estradiol-17β (E2) binding was assessed in MCF-7 parental breast cancer cells as before (14-16). […] MCF-7 cells were incubated with 2 nM [^3H]estradiol-17β and antiestrogens (all at 10 μM concentration; numbers Si to S15), with ICI 182,780 (ICI; fulvestrant) used as a control (n=3). Compounds S1-S14 are test compounds different from the exemplified compounds described herein.

Assay [4] concerns cleaved PARP. Nature of the assay: PARP cleavage, Western blot in A549 cells. To be noted: A549 cells, 0.01, 0.1 and 1 μM, 4 hours, 5% DCC-FBS; FIG. 2B. The format is cell-based, human. On the procedure:
FIG. 2B. […] A549 cells were treated in 5% DCC-FBS phenol-red free RPMI1640 with vehicle control (C) or increasing concentrations of JD140 at 0.01, 0.1 and 1 μM or 0.1 μM fulvestrant (F) for 4 hours. Western Blots were performed using anti-cleaved-PARP antibody (Cell Signaling Technology). RPL13A is shown as loading control. The Western blot is representative of 3 independent experiments.
We next assessed the effect of SERD compound 140 on the stimulation of NSCLC cell apoptosis by measurement of PARP cleavage at increasing drug doses (see FIG. 2B).
Gel electrophoresis and immunoblotting: Breast and lung tumor cells were treated in phenol-red free RPMI1640/DMEM with 5% DCC-FBS (26). After selected treatments cells were homogenized in the presence of protease inhibitors using RIPA buffer (Thermo Scientific). All procedures were performed in ice, lysates were centrifuged and protein concentration quantified in the supernatants using a Thermo Scientific® BCA protein assay kit. Approximately 20-60 μg of total protein were heated in the presence of Laemmli sample buffer (Biorad) to 100° C. for 10 min and loaded it on a gradient TGX gel 4-15% (Biorad). Gels were transferred to PVDF membranes for immunoblotting. Membranes were blocked either with 5% milk in Tris Buffer Saline with 0.1% Tween 20 or protein-free blocking solution (Thermo Scientific). […]

Setting [5] is: in the presence of 1 μM abemaciclib, 5% DCC-FBS, read-out: IC50 of SERD for inhibition of NSCLC cell proliferation, A549.
[6] abbreviates: in the presence of 1 μM palbociclib, 5% DCC-FBS, read-out: IC50 of SERD for inhibition of NSCLC cell proliferation, A549.
Setting [7] is: Homo sapiens, A549, SERD alone, estrogen-depleted phenol red-free medium with 5% DCC-FBS, read-out: IC50 for inhibition of NSCLC cell proliferation, A549.

In the case of `C[C@]12C[C@H](Oc3ccc(N)cc3)[C@@H]3c4ccc(O)cc4CC[C@H]3[C@@H]1CC[C@@H]2O` [JD105, (8S,9S,11S,13S,14S,17S)-11-(4-aminophenoxy)-13-methyl-7,8,9,11,12,13,14,15,16,17-decahydro-6H-cyclopenta[a]phenanthrene-3,17-diol], the IC50 was found to be 0.41 µM in assay [1] (setting [5]) and 2.57 µM in assay [1] (setting [6]). Moreover, the “ER protein levels (Western immunoblot)” value in assay [2] (24 hours, 10, 100 and 1000 nM, FIG. 6A) is “reduces ER protein levels”. The “specific binding of [3H]estradiol-17β” value in assay [3] is on record as “suppressed”; in assay [3] (listed as S15), “suppressed effectively”.
Regarding `C[C@]12C[C@H](Oc3ccc(N)c(C(F)(F)F)c3)[C@@H]3c4ccc(O)cc4CC[C@H]3[C@@H]1CC[C@@H]2O` [JD128, (8S,9S,11S,13S,14S,17S)-11-(4-Amino-3-(trifluoromethyl)phenoxy)-13-methyl-7,8,9,11,12,13,14,15,16,17-decahydro-6H-cyclopenta[a]phenanthrene-3,17-diol], the IC50 in assay [1] (setting [7]) was found to be 1.09 µM; in assay [1] (setting [5]) it was 0.66 µM; in assay [1] (setting [6]) it was 1.34 µM. Moreover, the “estrogen receptor-alpha expression (ERα protein levels, Western immunoblot)” value in assay [2] was “greatest effect at suppressing estrogen receptor-alpha expression”.
Regarding `C[C@]12C[C@H](Oc3ccc(NC(=O)CCCCN4CCCCC4)c(F)c3)[C@@H]3c4ccc(O)cc4CC[C@H]3[C@@H]1CC[C@@H]2O` [JD140, N-(4-(((8S,9S,11S,13S,14S,17S)-3,17-Dihydroxy-13-methyl-7,8,9,11,12,13,14,15,16,17-deca-hydro-6H-cyclopenta[a]phenanthren-11-yl)oxy)-2-fluorophenyl)-5-(piperidin-1-yl)pentan-amide], the “antiproliferative effects compared with fulvestrant” value in assay [1] (A549, RPMI 1640 with 10% FBS, 1 μM or 10 μM, FIG. 8A) was “significant antiproliferative effects”. In addition, the IC50 in assay [1] (setting [7]) stood at 0.5 µM; in assay [1] (setting [5]) it was 0.64 µM; in assay [1] (setting [6]), 1.22 µM. Also, the “estrogen receptor-alpha expression (ERα protein levels, Western immunoblot)” value in assay [2] is listed as “down-regulated”. For the same compound, the PARP cleavage result in assay [4] is given as “enhanced PARP cleavage”.
